Laboratory results taken from patent US10493060B2, “Spirocyclic compounds” (ZENO ROYALTIES & MILESTONES, LLC, priority 2015, dated 2019).

Experiments:
Activated ERK2 = Activated ERK2 (Homo sapiens (Human), UniProt P28482); assay: Active ERK2 kinase assay (Mobility Shift Assay); type: biochemical
Method: (§1) Activated ERK1 and ERK2 activity was determined in a Mobility Shift Assay (MSA) format as follows: Compound and kinase solution were prepared with assay buffer (20 mM HEPES, 0.01% Triton X-100, 2 mM DTT, pH7.5) and mixed and incubated in for 30 mins at rt. ERK1 & ERK2 were then activated by the addition of Fl-Substrate, ATP and metal solution and incubated for 1 h at rt. After 1 h, the reaction was terminated by the addition of […] of Termination Buffer (QuickScout Screening Assist MSA; Carna Biosciences) to the well. The reaction mixture was applied to LabChip™ system (PerkinElmer), and the product and substrate peptide peaks were separated, analyzed and quantitated. The kinase reaction is evaluated by the product ratio calculated from peak heights of product (P) and substrate (S) peptides (P/(P+S)).

A375 (melanoma) cells = assay: Proliferation assay (CellTiter-Glo), A375; type: cell-based; details: Homo sapiens, A-375, 72 h, 3 days
Method: A375 (melanoma), Colo-205 (colon cancer), Miapaca (pancreatic), HPAFII (pancreatic), sNF02.0 (neurofibromatosis type 1), sNF96.2 (neurofibromatosis type 1) and 8505 (Thyroid) cells were grown and maintained in RPMI-1640 medium containing 100 U/mL penicillin-streptomycin and 10% fetal bovine serum. Cells were in growth medium in 96-well opaque-walled clear bottom plates and incubated the in the CO2 incubator overnight before treatment. Cells were treated with compounds diluted in DMSO and a 10 point 3-fold serial dilutions were done. Plates were placed in 37° C., 5% CO2 for to incubate for 3 days. Before they were developed by adding 100 μL of CellTiter-Glo reagent (Promega) to the assay plate, plates were shaken briefly for 2 mins and allowed to incubate at rt for 10 mins. The bottom of the plates was pasted with white back seal and luminescence was recorded with Flexstation3 with setting of luminescence, integration time 500 ms.

Activated ERK1 = Activated ERK1 (Homo sapiens (Human), UniProt P27361); assay: Active ERK1 kinase assay (Mobility Shift Assay); type: biochemical
Method: as §1

Activated ERK1, sequence (P27361 whole entry): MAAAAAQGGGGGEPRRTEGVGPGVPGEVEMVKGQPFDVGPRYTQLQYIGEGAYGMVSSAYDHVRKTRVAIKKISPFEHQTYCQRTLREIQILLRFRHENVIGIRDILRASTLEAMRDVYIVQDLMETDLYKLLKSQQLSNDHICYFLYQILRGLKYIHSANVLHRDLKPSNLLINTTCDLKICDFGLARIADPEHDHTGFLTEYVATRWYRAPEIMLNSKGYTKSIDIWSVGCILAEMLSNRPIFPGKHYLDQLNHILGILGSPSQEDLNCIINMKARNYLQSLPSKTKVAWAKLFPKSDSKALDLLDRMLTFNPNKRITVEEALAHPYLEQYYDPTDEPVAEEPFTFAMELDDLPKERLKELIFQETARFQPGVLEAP
Activated ERK2, sequence (P28482 whole entry): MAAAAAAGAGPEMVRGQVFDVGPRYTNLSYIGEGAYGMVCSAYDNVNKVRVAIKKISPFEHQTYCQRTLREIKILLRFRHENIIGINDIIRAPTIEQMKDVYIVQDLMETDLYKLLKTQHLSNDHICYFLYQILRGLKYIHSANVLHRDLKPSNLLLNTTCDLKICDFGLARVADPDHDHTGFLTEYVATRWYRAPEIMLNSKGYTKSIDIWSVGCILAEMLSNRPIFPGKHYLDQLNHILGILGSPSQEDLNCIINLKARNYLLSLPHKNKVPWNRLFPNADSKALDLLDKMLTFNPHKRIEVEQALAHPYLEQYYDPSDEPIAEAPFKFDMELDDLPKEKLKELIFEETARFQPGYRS

SMILES	IC50 (Activated ERK2) [nM]	IC50 (A375 (melanoma) cells) [nM]	IC50 (Activated ERK1) [nM]
CC(C)Oc1ccc(-c2n[nH]c3ccc(N4CC[C@]5(CCN(CC(=O)N6CC=C(c7ccc(-c8ncccn8)cc7)CC6)C5)C4=O)cc23)cn1 [Example 22, (S)-2-(3-(6-Isopropoxypyridin-3-yl)-1H-indazol-5-yl)-7-(2-oxo-2-(4-(4-(pyrimidin-2-yl)phenyl)-3,6-dihydropyridin-1(2H)-yl)ethyl)-2,7-diazaspiro[4.4]nonan-1-one]	≤ 50	≤ 500	≤ 50
CC(C)Oc1cc(-c2n[nH]c3ccc(N4CC[C@]5(CCN(CC(=O)N6CC=C(c7ccc(-c8ncn(C)n8)cc7)CC6)C5)C4=O)cc23)ccn1 [Example 30, (S)-2-(3-(2-Isopropoxypyridin-4-yl)-1H-indazol-5-yl)-7-(2-(4-(4-(1-methyl-1H-1,2,4-triazol-3-yl)phenyl)-3,6-dihydropyridin-1(2H)-yl)-2-oxoethyl)-2,7-diazaspiro[4.4]nonan-1-one]	≤ 50	≤ 500	≤ 50
CC(C)Oc1ccc(-c2n[nH]c3ccc(N4CC[C@]5(CCN(CC(=O)N6CC=C(c7ccc(-c8ncccn8)cn7)CC6)C5)C4=O)cc23)cn1 [Example 25, (S)-2-(3-(6-Isopropoxypyridin-3-yl)-1H-indazol-5-yl)-7-(2-oxo-2-(5-(pyrimidin-2-yl)-3′,6′-dihydro-[2,4′-bipyridin]-1′(2′H)-yl)ethyl)-2,7-diazaspiro[4.4]nonan-1-one]	50 to 250	≥ 1000	≥ 250
Cc1noc(-c2ccc(C3=CCN(C(=O)CN4CC[C@]5(CCN(c6ccc7[nH]nc(-c8ccnc(C(F)(F)F)c8)c7c6)C5=O)C4)CC3)cc2)n1 [Example 43, (S)-7-(2-(4-(4-(3-methyl-1,2,4-oxadiazol-5-yl)phenyl)-3,6-dihydropyridin-1(2H)-yl)-2-oxoethyl)-2-(3-(2-(trifluoromethyl)pyridin-4-yl)-1H-indazol-5-yl)-2,7-diazaspiro[4.4]nonan-1-one]	≤ 50	≥ 1000	–
Cn1cc(-c2ccc(C3=CCN(C(=O)CN4CC[C@]5(CCN(c6ccc7[nH]nc(-c8ccnc(C(F)(F)F)c8)c7c6)C5=O)C4)CC3)cc2)nn1 [Example 41, (S)-7-(2-(4-(4-(1-methyl-1H-1,2,3-triazol-4-yl)phenyl)-3,6-dihydropyridin-1 (2H)-yl)-2-oxoethyl)-2-(3-(2-(trifluoromethyl)pyridin-4-yl)-1H-indazol-5-yl)-2,7-diazaspiro[4.4]nonan-1-one]	≤ 50	≤ 500	–
CC(C)Oc1ccc(-c2n[nH]c3ccc(N4CC[C@]5(CCN(CC(=O)N6CC=C(c7ccc(-c8cn(C)cn8)cc7)CC6)C5)C4=O)cc23)cn1 [Example 26, (S)-2-(3-(6-Isopropoxypyridin-3-yl)-1H-indazol-5-yl)-7-(2-(4-(4-(1-methyl-1H-imidazol-4-yl)phenyl)-3,6-dihydropyridin-1(2H)-yl)-2-oxoethyl)-2,7-diazaspiro[4.4]nonan-1-one]	≤ 50	≤ 500	–
Cn1cnc(-c2ccc(C3=CCN(C(=O)CN4CC[C@]5(CCN(c6ccc7[nH]nc(-c8ccnc(C(C)(F)F)c8)c7c6)C5=O)C4)CC3)cc2)n1 [Example 39, (S)-2-(3-(2-(1,1-difluoroethyl)pyridin-4-yl)-1H-indazol-5-yl)-7-(2-(4-(4-(1-methyl-1H-1,2,4-triazol-3-yl)phenyl)-3,6-dihydropyridin-1(2H)-yl)-2-oxoethyl)-2,7-diazaspiro[4.4]nonan-1-one]	≤ 50	≤ 500	–
CC(C)Oc1ccc(-c2n[nH]c3ccc(N4CC[C@]5(CCN(CC(=O)N6CCC(c7ccc(-c8ncn(C)n8)cc7)CC6)C5)C4=O)cc23)cn1 [Example 16, (S)-2-(3-(6-Isopropoxypyridin-3-yl)-1H-indazol-5-yl)-7-(2-(4-(4-(1-methyl-1H-1,2,4-triazol-3-yl)phenyl)piperidin-1-yl)-2-oxoethyl)-2,7-diazaspiro[4.4]nonan-1-one]	≤ 50	–	≤ 50
CC(C)Oc1ccc(-c2n[nH]c3ccc(N4CC[C@]5(CCN(CC(=O)N6CC=C(c7ccc(-n8ccnn8)cc7)CC6)C5)C4=O)cc23)cn1 [Example 14, (S)-7-(2-(4-(4-(1H-1,2,3-Triazol-1-yl)phenyl)-3,6-dihydropyridin-1(2H)-yl)-2-oxoethyl)-2-(3-(6-isopropoxypyridin-3-yl)-1H-indazol-5-yl)-2,7-diazaspiro[4.4]nonan-1-one]	≤ 50	–	≤ 50
Cn1cnc(-c2ccc(C3=CCN(C(=O)CN4CC[C@]5(CCN(c6ccc7[nH]nc(-c8cnccc8C(F)(F)F)c7c6)C5=O)C4)CC3)cc2)n1 [Example 34, (S)-7-(2-(4-(4-(1-Methyl-1H-1,2,4-triazol-3-yl)phenyl)-3,6-dihydropyridin-1(2H)-yl)-2-oxoethyl)-2-(3-(4-(trifluoromethyl)pyridin-3-yl)-1H-indazol-5-yl)-2,7-diazaspiro[4.4]nonan-1-one]	≥ 250	≥ 1000	–
CC(C)Oc1ccc(-c2n[nH]c3ccc(N4CC[C@]5(CCN(CC(=O)N6CCN(c7ccc(-c8ncn(C)n8)cc7)CC6)C5)C4=O)cc23)cn1 [Example 32, (S)-2-(3-(6-Isopropoxypyridin-3-yl)-1H-indazol-5-yl)-7-(2-(4-(4-(1-methyl-1H-1,2,4-triazol-3-yl)phenyl)piperazin-1-yl)-2-oxoethyl)-2,7-diazaspiro[4.4]nonan-1-one]	≤ 50	≤ 500	–

The next lines start with the values.

IC50 (Activated ERK2) [nM]	IC50 (A375 (melanoma) cells) [nM]	IC50 (Activated ERK1) [nM]	SMILES
≤ 50	≤ 500	–	Cc1nnc(-c2ccc(C3=CCN(C(=O)CN4CC[C@]5(CCN(c6ccc7[nH]nc(-c8ccnc(C(F)(F)F)c8)c7c6)C5=O)C4)CC3)cc2)o1 [Example 42, (S)-7-(2-(4-(4-(5-Methyl-1,3,4-oxadiazol-2-yl)phenyl)-3,6-dihydropyridin-1 (2H)-yl)-2-oxoethyl)-2-(3-(2-(trifluoromethyl)pyridin-4-yl)-1H-indazol-5-yl)-2,7-diazaspiro[4.4]nonan-1-one]
≤ 50	500 to 1000	≤ 50	CC(C)Oc1ccc(-c2n[nH]c3ccc(N4CC[C@]5(CCN(CC(=O)N6CC=C(c7ccc(-c8ncc(F)cn8)cc7)CC6)C5)C4=O)cc23)cn1 [Example 23, (S)-7-(2-(4-(4-(5-Fluoropyrimidin-2-yl)phenyl)-3,6-dihydropyridin-1(2H)-yl)-2-oxoethyl)-2-(3-(6-isopropoxypyridin-3-yl)-1H-indazol-5-yl)-2,7-diazaspiro[4.4]nonan-1-one]
≤ 50	≥ 1000	50 to 250	CC(C)Oc1ccc(-c2n[nH]c3ccc(N4CC[C@]5(CCN(CC(=O)N6CCC(C78CC(c9ncn(C)n9)(C7)C8)CC6)C5)C4=O)cc23)cn1 [Example 24, (S)-2-(3-(6-Isopropoxypyridin-3-yl)-1H-indazol-5-yl)-7-(2-(4-(3-(1-methyl-1H-1,2,4-triazol-3-yl)bicyclo[1.1.1]pentan-1-yl)piperidin-1-yl)-2-oxoethyl)-2,7-diazaspiro[4.4]nonan-1-one]
≤ 50	≤ 500	–	Cn1cnc(-c2ccc(C3=CCN(C(=O)CN4CC[C@]5(CCN(c6ccc7[nH]nc(N8CCOCC8)c7c6)C5=O)C4)CC3)cc2)n1 [Example 33, (S)-7-(2-(4-(4-(1-Methyl-1H-1,2,4-triazol-3-yl)phenyl)-3,6-dihydropyridin-1 (2H)-yl)-2-oxoethyl)-2-(3-morpholino-1H-indazol-5-yl)-2,7-diazaspiro[4.4]nonan-1-one]
≤ 50	≤ 500	–	Cn1cnc(-c2ccc(C3=CCN(C(=O)CN4CC[C@]5(CCN(c6ccc7[nH]nc(-c8ccnc(C(F)F)c8)c7c6)C5=O)C4)CC3)cc2)n1 [Example 40, (S)-2-(3-(2-(Difluoromethyl)pyridin-4-yl)-1H-indazol-5-yl)-7-(2-(4-(4-(1-methyl-1H-1,2,4-triazol-3-yl)phenyl)-3,6-dihydropyridin-1(2H)-yl)-2-oxoethyl)-2,7-diazaspiro[4.4]nonan-1-one]
50 to 250	≥ 1000	–	Cn1cnc(-c2ccc(C3=CCN(C(=O)CN4CC[C@]5(CCN(c6ccc7[nH]ncc7c6)C5=O)C4)CC3)cc2)n1 [Example 36, (S)-2-(1H-indazol-5-yl)-7-(2-(4-(4-(1-methyl-1H-1,2,4-triazol-3-yl)phenyl)-3,6-dihydropyridin-1(2H)-yl)-2-oxoethyl)-2,7-diazaspiro[4.4]nonan-1-one]
≤ 50	–	≤ 50	Cc1cc(-c2n[nH]c3ccc(N4CCC5(CCN(CC(=O)N6CC=C(c7ccc(-c8ncn(C)n8)cc7)CC6)C5)C4=O)cc23)ccn1 (centres unmarked) [Example 6, 7-(2-(4-(4-(1-Methyl-1H-1,2,4-triazol-3-yl)phenyl)-3,6-dihydropyridin-1(2H)-yl)-2-oxoethyl)-2-(3-(2-methylpyridin-4-yl)-1H-indazol-5-yl)-2,7-diazaspiro[4.4]nonan-1-one]
